# Data published in patent publication US11786523B2, “Composition and method for reducing thrombocytopenia” (BEYONDSPRING PHARMACEUTICALS, INC., priority 2018, dated 2023).
# What was measured:
# [1] = tested on: gemcitabine-induced thrombocytopenia; assay: Effects of plinabulin on hematology parameters (platelet counts) following gemcitabine administration in the rat; type: in vivo
# Description: The effects of plinabulin on the hematology parameters following changes induced by gemcitabine administration in the rat were evaluated. The vehicle was prepared using 7.11% Tween 80 (v/v): 25.5% Propylene glycol (v/v): 67.4% D5W (v/v). D5W is 5% dextrose in water for injection.
# Plinabulin or Pegfilgrastim were first dissolved in the Tween 80-PG mixture and then diluted with D5W. Test item was dissolved in Tween 80-PG mixture on the day before and stored at RF. D5W was added on the day of dosing to complete the formulation.
# Animals were randomized based on body weight and/or absolute neutrophil counts and assigned to groups. Before the initiation of dosing, any assigned animals considered unsuitable for use in the study were replaced by alternate animals obtained from the same shipment and maintained under the same environmental conditions. Each animal was uniquely identified using indelible ink. A minimum acclimation period of 5 days was allowed between animal receipt and the start of treatment in order to accustom the animals to the laboratory environment.
# For the lab evaluation, the animal blood was collected by jugular venipuncture. Samples (0.3 mL) were collected in EDTA tubes. Additional blood samples may be obtained (e.g., due to clotting of non-serum samples) if permissible sampling frequency and blood volume are not exceeded. After collection, samples were transferred to Clinical Laboratories for hematology analysis using the Advia and results entered into the Provantis® system.
# Administration of Inducing Agent
# 1. Gemcitabine; Groups 1, 3 and 4
# Dosing regimen: Single dosing on Day 1
# Intravenously (IV bolus) over ˜1 minute at a dose volume of 5 mL/kg.
# Group 2 received Vehicle.
# 2. Pegfilgrastim; Groups 2 and 4
# Dosing regimen: Single dosing on Day 2, 24 hours after Gemcitabine
# Route of administration: Subcutaneous (SC) injection.
# Dose volume: 10 mL/kg, based on the most recent body weight measurement
# Dosing regimen: Single dosing on Day 1, 1 hr after Gemcitabine
# Route of administration: Intra-peritoneal (IP) injection.
# Group 1 received Vehicle.
# The dosing time points for groups 1 to 4 include days −3, 1, 2, 3, 4, 5, 6, 7, 8, 9 and 10. Additional blood samples may be obtained (e.g., due to clotting of non-serum samples) if permissible sampling frequency and blood volume are not exceeded. After collection, samples will be transferred to Clinical Laboratories for hematology analysis using the Advia and results entered into the Provantis® system.
# [2] = tested on: thrombocytopenia in patients receiving docetaxel; assay: Phase 2/3 randomized study of plinabulin versus pegfilgrastim in patients with solid tumors receiving docetaxel myelosuppressive chemotherapy (platelet count, thrombocytopenia); type: in vivo, human; conditions: patients on docetaxel 75 mg/m^2, preliminary; for change of platelet count (percent) from day 1 to day 15: pegfilgrastim 6 mg vs plinabulin 20 mg/m^2, FIG. 2; for development of thrombocytopenia (percentage of patients at each grade): plinabulin 20 mg/m^2 vs pegfilgrastim 6 mg, FIG. 5
# Description: The effects of plinabulin on the thrombocytopenia is studied in comparison to pegfilgrastim. A phase 2/3, multicenter, randomized, double blind study is performed with plinabulin versus pegfilgrastim in patients with solid tumors receiving docetaxel myelosuppressive chemotherapy is evaluated. The patients are on study for approximately 5 months, including screening, on treatment, and follow-up. Study design: This is a multicenter, randomized study with an open label phase 2 portion and a double blind phase 3 portion. Approximately 190 patients are enrolled in this study. All patients receive docetaxel at a dose of 75 mg/m^2. In Phase 2, only patients with advanced or metastatic NSCLC after failing platinum-based therapy are enrolled. In Phase 3, patients with one of the following diagnosis are enrolled: advanced or metastatic breast cancer, who have failed<5 prior lines of chemotherapy; advanced or metastatic NSCLC who have previously received platinum-based therapy and have either disease progression, are intolerant of platinum-based therapy or, in the opinion of the investigator, would benefit from docetaxel chemotherapy; or hormone refractory (androgen independent) metastatic prostate cancer. The eligibility of all patients will be determined during a 28-day screening period. Phase 2 (Open Label): Approximately 40 patients with advanced or metastatic NSCLC are enrolled. Patients are randomly assigned with approximately 10 patients enrolled in each arm, with the arm designation and planned intervention as follows: Arm 1: Docetaxel (75 mg/m^2)+pegfilgrastim (6 mg) Arm 2: Docetaxel (75 mg/m^2)+plinabulin (20 mg/m^2) Arm 3: Docetaxel (75 mg/m^2)+plinabulin (10 mg/m^2) Arm 4: Docetaxel (75 mg/m^2)+plinabulin (5 mg/m^2) Once the study is temporarily closed to enrollment in phase 2, a PK/PD analysis is performed to determine the RP3D. The PK/PD analysis is done by an independent party at the time 40 patients in Phase 2 have completed at least Cycle 1. Treatments Administered: Both Phase 2 and Phase 3, Cycles 1 to 4, consist of docetaxel 75 mg/m^2 administered by intravenous (IV) infusion on Day 1 over 60 minutes (±5 minutes) every 21 days. In the phase 2 portion, on Day 1 of each cycle, 1.5 hours (±10 minutes) after the start time of docetaxel infusion (i.e., approximately 30 minutes after the end of docetaxel infusion), patients assigned to a plinabulin arm (arms 2-4) get a single intravenous infusion of plinabulin at their assigned dose over 30 minutes (±5 minutes). Thus, the wait time between end of docetaxel infusion and start of the plinabulin infusion is approximately 30 minutes. On Day 2 of each cycle, ≥24 hours after completing chemotherapy, patients assigned to pegfilgrastim (arm 1) receive a single dose of pegfilgrastim (6 mg) (subcutaneous injection). Laboratory test results (hematology and serum chemistry) are collected via a central laboratory. Safety laboratory tests are required prior to treatment on Day 1 of each cycle and can be collected by a local laboratory; however, all other scheduled blood samples as per the schedule assessments and procedure table must also be obtained for central laboratory assessment. Urinalysis is performed at screening only. CD34+ counts are established through a fluorescence-activated cell sorting (FACS) method. Duration of Treatment: Patients received treatment with study drug for up to 4 cycles in this study, a treatment cycle is 21 days; thereafter, patients may continue receiving docetaxel and pegfilgrastim at the Investigator's discretion. After completion of 4 cycles, patients completed a safety follow-up visit 30 days (±2 days) after the last dose of study drug. If, in the opinion of the investigator, the patient would benefit from more than 4 cycles of docetaxel and open label pegfilgrastim, then the fifth cycle would not start until completion of the safety follow-up visit (in this instance, the safety follow-up visit will be Cycle 4 Day 21).
Molecule,"platelet counts versus gemcitabine alone group ([1]; Days 8 and 9, gemcitabine and plinabulin group)","effect on thrombocytopenia observed with gemcitabine alone ([1]; gemcitabine 100 mg/kg IV + plinabulin 7.5 mg/kg IP, FIG. 1)","platelet counts ([1]; gemcitabine 100 mg/kg IV Day 1 + plinabulin 7.5 mg/kg IP 1 hr after, all sampling days, FIG. 1)",recovery from gemcitabine-induced thrombocytopenia versus gemcitabine alone ([1]; gemcitabine and plinabulin group),"percentage of patients with greater than 30% platelet decrease from baseline, compared with pegfilgrastim group ([2]; cycles 1-4, plinabulin groups, FIG. 3)",change of platelet count (percent) from day 1 to day 15 [2],development of thrombocytopenia (percentage of patients at each grade) [2],"incidence of developing thrombocytopenia (percentage of patients at each grade) ([2]; plinabulin 5, 10 and 20 mg/m^2 vs pegfilgrastim 6 mg, FIG. 4)","percentage of patients with greater than 30% platelet decrease from baseline ([2]; cycles 1-4, FIG. 3) [%]"
"CC(C)(C)c1[nH]cnc1/C=c1\[nH]c(=O)/c(=C/c2ccccc2)[nH]c1=O [plinabulin, Plinabulin]",statistically greater,reduced the thrombocytopenia observed with gemcitabine alone,> 500 ×10^3 cells/μL,more rapid,lower percentages,more effective in maintaining the platelet count,did not develop thrombocytopenia,lower incidences of developing thrombocytopenia than the pegfilgrastim group,
"pegfilgrastim (protein, chains of the INN, looked up, PEG, granulocyte-colony stimulating factor (G-CSF) drug used as comparator) TPLGPASSLPQSFLLKCLEQVRKIQGDGAALQEKLCATYKLCHPEELVLLGHSLGIPWAPLSSCPSQALQLAGCLSQLHSGLFLYQGLLQALEGISPELGPTLDTLQLDVADFATTIWQQMEELGMAPALQPTQGAMPAFASAFQRRAGGVLVASHLQSFLEVSYRVLRHLAQP",,,,,,greater than the plinabulin group,some patients in the pegfilgrastim group developed thrombocytopenia,,~85
